Measured values reported in BindingDB's records for doi:10.1016/S0960-894X(00)80678-2 (1993).
Non-standard residues stand in square brackets, D forms with d. Residues, ends and D or L forms follow the SMILES beside them. *: point of attachment. 1Nal = N[C@@H](Cc1cccc2ccccc12)C(=O)O; Boc = CC(C)(C)OC(=O)*

Columns and labels:
[1] = biological target: Gastrin/cholecystokinin type B receptor (Cavia porcellus); assay: Tested for the inhibition of [3H]pCCK-8 binding to Cholecystokinin type B receptor in guinea pig brain
[2] = biological target: Gastrin/cholecystokinin type B receptor (Cavia porcellus); assay: as above; remark: listed apart in the source

Ki [1] [nM] | Ki [2] [nM] | SMILES
0.46 |  | CCCC[C@@H](NC(=O)CC(=O)N[C@@H](Cc1c[nH]c2ccccc12)C(=O)N(C)[C@@H](CCCC)C(=O)N[C@@H](CC(=O)O)C(=O)N[C@@H](Cc1ccccc1)C(N)=O)NC(=O)[C@H](Cc1ccc(CS(=O)(=O)O)cc1)NC(=O)OC(C)(C)C [Boc-Phe(CH2-SO3Na)-gNle-mCIy-Trp-(N-Me)Nle-Asp-Phe-NH2]
71 |  | CC(C)(C)OC(=O)N[C@@H](Cc1c[nH]c2ccccc12)C(=O)N[C@@H](Cc1ccccc1)C(=O)N[C@@H](CC(=O)O)C(=O)N[C@@H](Cc1cccc2ccccc12)C(N)=O [Boc-Trp-Phe-Asp-1Nal-NH2] (Boc-WFD[1Nal]-NH2)
 | 0.15 | CCCC[C@@H](NC(=O)CC(=O)N[C@@H](Cc1c[nH]c2ccccc12)C(=O)N(C)[C@@H](CCCC)C(=O)N[C@@H](CC(=O)O)C(=O)N[C@@H](Cc1ccccc1)C(N)=O)NC(=O)[C@H](Cc1ccc(OS(=O)(=O)O)cc1)NC(=O)OC(C)(C)C [Boc-Tyr(SO3Na)-gNle-mGIy-Trp-(N-Me)Nle-Asp-Phe-NH2]
